Test results taken from patent US7618816B2, “Metal-binding therapeutic peptides” (Ontherix, Inc., priority 2005, dated 2009).
Where no end group is shown, it is not given here.

Columns and labels:
[1] = system: 435; assay: Uptake of SA-HRP::MBD peptide complexes; assay type: cell-based; conditions: for SA-HRP uptake, Cyt.: 435, cytoplasmic; for SA-HRP uptake, Nuc.: 435, nuclear
Experimental: (§1) HEK293 kidney cell line and 54 tumor cell lines obtained from the National Cancer Institute and passaged in RPMI1640 cell culture medium supplemented with 10% fetal bovine serum and 10 uM FeCl2. Uptake of streptavidin-horseradish peroxidase (SA-HRP) conjugate and of various SA-HRP::MBD peptide complexes was determined as described (Singh et al. J Biol Chem. 279 (1):477-87 [2004]) using biotinylated MBD9 ([…]) (SEQ ID NO: 10) and MBD21 ([…]) (SEQ ID NO: 4) peptides and SA-HRP. Nuclear and cytoplasmic localization of these proteins was also determined in each case. […] In order to establish the underlying molecular mechanism for this variability, we cross-linked MBD21 peptide to the following cell surface markers at 4 degrees Celsius as previously described (Singh et al. J Biol Chem. 279 (1):477-87 [2004]): transferrin receptor 1, caveolin 1, PCNA, integrins alpha v, 2, 5 and 6, integrins beta 1, 3 and 5. […] Based on the strength of these correlations, it was possible to derive crude predictive formulae for MBD-mediated uptake based on the rate of cross-linking to surface markers. Such predictive formulas could form the basis for a diagnostic procedure to select appropriate targets for MBD-based therapies.

[2] = system: CCRF-SB; assay: Uptake of SA-HRP::MBD peptide complexes; assay type: cell-based; conditions: for SA-HRP uptake, Cyt.: cytoplasmic; for SA-HRP uptake, Nuc.: nuclear
Experimental: as §1

[3] = system: COLON 26; assay: Uptake of SA-HRP::MBD peptide complexes; assay type: cell-based; conditions: for SA-HRP uptake, Cyt.: COLON 26, cytoplasmic; for SA-HRP uptake, Nuc.: COLON 26, nuclear
Experimental: as §1

[4] = system: HEK 293; assay: Uptake of SA-HRP::MBD peptide complexes; assay type: cell-based; conditions: for SA-HRP uptake, Cyt.: HEK 293, cytoplasmic; for SA-HRP uptake, Nuc.: HEK 293, nuclear
Experimental: as §1

[5] = system: K562; assay: Uptake of SA-HRP::MBD peptide complexes; assay type: cell-based; conditions: for SA-HRP uptake, Cyt.: K562, cytoplasmic; for SA-HRP uptake, Nuc.: K562, nuclear
Experimental: as §1

[6] = system: PAN 02; assay: Uptake of SA-HRP::MBD peptide complexes; assay type: cell-based; conditions: for SA-HRP uptake, Cyt.: PAN 02, cytoplasmic; for SA-HRP uptake, Nuc.: PAN 02, nuclear
Experimental: as §1

[7] = system: SR; assay: Uptake of SA-HRP::MBD peptide complexes; assay type: cell-based; conditions: for SA-HRP uptake, Cyt.: cytoplasmic; for SA-HRP uptake, Nuc.: nuclear
Experimental: as §1

[8] = system: A2780; assay: Uptake of SA-HRP::MBD peptide complexes; assay type: cell-based, human; conditions: for SA-HRP uptake, Cyt.: A2780, cytoplasmic; for SA-HRP uptake, Nuc.: A2780, nuclear
Experimental: as §1

[9] = system: ACHN; assay: Uptake of SA-HRP::MBD peptide complexes; assay type: cell-based, human; conditions: for SA-HRP uptake, Cyt.: cytoplasmic; for SA-HRP uptake, Nuc.: nuclear
Experimental: as §1

[10] = system: BT-549; assay: Uptake of SA-HRP::MBD peptide complexes; assay type: cell-based, human; conditions: for SA-HRP uptake, Cyt.: BT-549, cytoplasmic; for SA-HRP uptake, Nuc.: BT-549, nuclear
Experimental: as §1

[11] = system: EKVX; assay: Uptake of SA-HRP::MBD peptide complexes; assay type: cell-based, human; conditions: for SA-HRP uptake, Cyt.: cytoplasmic; for SA-HRP uptake, Nuc.: nuclear
Experimental: as §1

[12] = system: HCC 2998; assay: Uptake of SA-HRP::MBD peptide complexes; assay type: cell-based, human; conditions: for SA-HRP uptake, Cyt.: HCC 2998, cytoplasmic; for SA-HRP uptake, Nuc.: HCC 2998, nuclear
Experimental: as §1

[13] = system: HCT-116; assay: Uptake of SA-HRP::MBD peptide complexes; assay type: cell-based, human; conditions: for SA-HRP uptake, Cyt.: HCT-116, cytoplasmic; for SA-HRP uptake, Nuc.: HCT-116, nuclear
Experimental: as §1

[14] = system: HOP 62; assay: Uptake of SA-HRP::MBD peptide complexes; assay type: cell-based, human; conditions: for SA-HRP uptake, Cyt.: HOP 62, cytoplasmic; for SA-HRP uptake, Nuc.: HOP 62, nuclear
Experimental: as §1

[15] = system: HS 913T; assay: Uptake of SA-HRP::MBD peptide complexes; assay type: cell-based, human; conditions: for SA-HRP uptake, Cyt.: cytoplasmic; for SA-HRP uptake, Nuc.: nuclear
Experimental: as §1

[16] = system: HS-578T; assay: Uptake of SA-HRP::MBD peptide complexes; assay type: cell-based, human; conditions: for SA-HRP uptake, Cyt.: cytoplasmic; for SA-HRP uptake, Nuc.: nuclear
Experimental: as §1

[17] = system: IGR-OV1; assay: Uptake of SA-HRP::MBD peptide complexes; assay type: cell-based, human; conditions: for SA-HRP uptake, Cyt.: IGR-OV1, cytoplasmic; for SA-HRP uptake, Nuc.: IGR-OV1, nuclear
Experimental: as §1

[18] = system: LOVO; assay: Uptake of SA-HRP::MBD peptide complexes; assay type: cell-based, human; conditions: for SA-HRP uptake, Cyt.: cytoplasmic; for SA-HRP uptake, Nuc.: nuclear
Experimental: as §1

[19] = system: MOLT4; assay: Uptake of SA-HRP::MBD peptide complexes; assay type: cell-based, human; conditions: for SA-HRP uptake, Cyt.: MOLT4, cytoplasmic; for SA-HRP uptake, Nuc.: MOLT4, nuclear
Experimental: as §1

[20] = system: MX-1; assay: Uptake of SA-HRP::MBD peptide complexes; assay type: cell-based, human; conditions: for SA-HRP uptake, Cyt.: MX-1, cytoplasmic; for SA-HRP uptake, Nuc.: MX-1, nuclear
Experimental: as §1

[21] = system: NCI-H226; assay: Uptake of SA-HRP::MBD peptide complexes; assay type: cell-based, human; conditions: for SA-HRP uptake, Cyt.: NCI-H226, cytoplasmic; for SA-HRP uptake, Nuc.: NCI-H226, nuclear
Experimental: as §1

[22] = system: PC-3; assay: Uptake of SA-HRP::MBD peptide complexes; assay type: cell-based, human; conditions: for SA-HRP uptake, Cyt.: PC-3, cytoplasmic; for SA-HRP uptake, Nuc.: PC-3, nuclear
Experimental: as §1

[23] = system: UO-31; assay: Uptake of SA-HRP::MBD peptide complexes; assay type: cell-based, human; conditions: for SA-HRP uptake, Cyt.: UO-31, cytoplasmic; for SA-HRP uptake, Nuc.: UO-31, nuclear
Experimental: as §1

[24] = system: 54 tumor cell lines; assay: Uptake of SA-HRP::MBD peptide complexes, median of the survey; assay type: cell-based; conditions: median over tumor cell lines; for SA-HRP uptake, Cyt. (ng), Median: cytoplasmic; for SA-HRP uptake, Nuc. (ng), Median: nuclear
Experimental: as §1

KKGFYKKKKQCRPSKGRKRGFCWNGRK [MBD9] was tested, and the “SA-HRP uptake, Cyt.” value [1] was 8.6 ng, the “SA-HRP uptake, Nuc.” value [1] was 2.7 ng and the “SA-HRP uptake, Cyt.” value [2] was 2.6 ng. For the same sequence, the “SA-HRP uptake, Nuc.” value [2] was 0.6 ng, the “SA-HRP uptake, Cyt.” value [3] was 11.3 ng and the “SA-HRP uptake, Nuc.” value [3] was 2.3 ng. For the same sequence, the “SA-HRP uptake, Cyt.” value [4] was 20.2 ng, the “SA-HRP uptake, Nuc.” value [4] was 20.1 ng and the “SA-HRP uptake, Cyt.” value [5] was 2.6 ng. For the same sequence, the “SA-HRP uptake, Nuc.” value [5] was 1.3 ng, the “SA-HRP uptake, Cyt.” value [6] was 25.8 ng and the “SA-HRP uptake, Nuc.” value [6] was 7.0 ng. The “SA-HRP uptake, Cyt.” value [7] was 24.4 ng, the “SA-HRP uptake, Nuc.” value [7] was 0.0 ng and the “SA-HRP uptake, Cyt.” value [8] was 20.7 ng. The “SA-HRP uptake, Nuc.” value [8] was 2.8 ng, the “SA-HRP uptake, Cyt.” value [9] was 9.6 ng and the “SA-HRP uptake, Nuc.” value [9] was 2.9 ng. The “SA-HRP uptake, Cyt.” value [10] was 7.2 ng, the “SA-HRP uptake, Nuc.” value [10] was 2.1 ng and the “SA-HRP uptake, Cyt.” value [11] was 7.2 ng. For the same sequence, the “SA-HRP uptake, Nuc.” value [11] was 4.2 ng, the “SA-HRP uptake, Cyt.” value [12] was 4.6 ng and the “SA-HRP uptake, Nuc.” value [12] was 3.7 ng. For the same sequence, the “SA-HRP uptake, Cyt.” value [13] was 14.1 ng, the “SA-HRP uptake, Nuc.” value [13] was 4.4 ng and the “SA-HRP uptake, Cyt.” value [14] was 12.0 ng. The “SA-HRP uptake, Nuc.” value [14] was 0.9 ng, the “SA-HRP uptake, Cyt.” value [15] was 3.4 ng and the “SA-HRP uptake, Nuc.” value [15] was 1.1 ng. For the same sequence, the “SA-HRP uptake, Cyt.” value [16] was 6.8 ng, the “SA-HRP uptake, Nuc.” value [16] was 2.3 ng and the “SA-HRP uptake, Cyt.” value [17] was 7.0 ng. The “SA-HRP uptake, Nuc.” value [17] was 2.6 ng, the “SA-HRP uptake, Cyt.” value [18] was 12.6 ng and the “SA-HRP uptake, Nuc.” value [18] was 5.4 ng. For the same sequence, the “SA-HRP uptake, Cyt.” value [19] was 12.7 ng, the “SA-HRP uptake, Nuc.” value [19] was 0.0 ng and the “SA-HRP uptake, Cyt.” value [20] was 10.8 ng. The “SA-HRP uptake, Nuc.” value [20] was 3.1 ng, the “SA-HRP uptake, Cyt.” value [21] was 2.6 ng and the “SA-HRP uptake, Nuc.” value [21] was 1.8 ng. For the same sequence, the “SA-HRP uptake, Cyt.” value [22] was 23.2 ng, the “SA-HRP uptake, Nuc.” value [22] was 8.5 ng and the “SA-HRP uptake, Cyt.” value [23] was 4.6 ng. The “SA-HRP uptake, Nuc.” value [23] was 1.0 ng, the “SA-HRP uptake, Cyt. (ng), Median” value [24] was 7.4 ng and the “SA-HRP uptake, Nuc. (ng), Median” value [24] was 1.8 ng.

In the case of “KKGFYKKKQCRPSKGRKRGFCWAVDKYG (cysteine pairing not given here; also: biotinylated (position not given here), complexed with SA-HRP) [MBD21]”, the “SA-HRP uptake, Cyt.” value [1] is reported as 6.1 ng, the “SA-HRP uptake, Nuc.” value [1] is reported as 1.3 ng and the “SA-HRP uptake, Cyt.” value [2] is reported as 1.7 ng. The “SA-HRP uptake, Nuc.” value [2] was 0.1 ng, the “SA-HRP uptake, Cyt.” value [3] was 8.9 ng and the “SA-HRP uptake, Nuc.” value [3] was 2.2 ng. For the same sequence, the “SA-HRP uptake, Cyt.” value [4] was 13.6 ng, the “SA-HRP uptake, Nuc.” value [4] was 4.5 ng and the “SA-HRP uptake, Cyt.” value [5] was 2.8 ng. For the same sequence, the “SA-HRP uptake, Nuc.” value [5] was 1.1 ng, the “SA-HRP uptake, Cyt.” value [6] was 9.3 ng and the “SA-HRP uptake, Nuc.” value [6] was 2.2 ng. The “SA-HRP uptake, Cyt.” value [7] was 20.9 ng, the “SA-HRP uptake, Nuc.” value [7] was 0.0 ng and the “SA-HRP uptake, Cyt.” value [8] was 7.5 ng. The “SA-HRP uptake, Nuc.” value [8] was 1.0 ng, the “SA-HRP uptake, Cyt.” value [9] was 8.0 ng and the “SA-HRP uptake, Nuc.” value [9] was 3.1 ng. The “SA-HRP uptake, Cyt.” value [10] was 4.8 ng, the “SA-HRP uptake, Nuc.” value [10] was 3.3 ng and the “SA-HRP uptake, Cyt.” value [11] was 7.7 ng. The “SA-HRP uptake, Nuc.” value [11] was 7.3 ng, the “SA-HRP uptake, Cyt.” value [12] was 2.1 ng and the “SA-HRP uptake, Nuc.” value [12] was 2.4 ng. For the same sequence, the “SA-HRP uptake, Cyt.” value [13] was 12.4 ng, the “SA-HRP uptake, Nuc.” value [13] was 9.5 ng and the “SA-HRP uptake, Cyt.” value [14] was 4.1 ng. For the same sequence, the “SA-HRP uptake, Nuc.” value [14] was 0.2 ng, the “SA-HRP uptake, Cyt.” value [15] was 2.1 ng and the “SA-HRP uptake, Nuc.” value [15] was 1.8 ng. For the same sequence, the “SA-HRP uptake, Cyt.” value [16] was 2.8 ng, the “SA-HRP uptake, Nuc.” value [16] was 2.3 ng and the “SA-HRP uptake, Cyt.” value [17] was 1.9 ng. For the same sequence, the “SA-HRP uptake, Nuc.” value [17] was 1.0 ng, the “SA-HRP uptake, Cyt.” value [18] was 8.7 ng and the “SA-HRP uptake, Nuc.” value [18] was 3.8 ng. The “SA-HRP uptake, Cyt.” value [19] was 7.3 ng, the “SA-HRP uptake, Nuc.” value [19] was 0.0 ng and the “SA-HRP uptake, Cyt.” value [20] was 8.5 ng. The “SA-HRP uptake, Nuc.” value [20] was 3.8 ng, the “SA-HRP uptake, Cyt.” value [21] was 0.7 ng and the “SA-HRP uptake, Nuc.” value [21] was 0.9 ng. For the same sequence, the “SA-HRP uptake, Cyt.” value [22] was 44.2 ng, the “SA-HRP uptake, Nuc.” value [22] was 13.2 ng and the “SA-HRP uptake, Cyt.” value [23] was 1.3 ng. For the same sequence, the “SA-HRP uptake, Nuc.” value [23] was 3.3 ng, the “SA-HRP uptake, Cyt. (ng), Median” value [24] was 2.8 ng and the “SA-HRP uptake, Nuc. (ng), Median” value [24] was 1.0 ng.
